# Active and inactive are the calls of the source. The calls are words filed in the database; no cut-off is given here.
# Assays:
# Hepatocyte [1] = assay: Cytotoxicity against mouse Hepatocyte assessed as cell viability at 0.1 to 5 uM compound administrated as copper complex measured at 24 hrs by MTT assay; assay type: toxicity, cell-based; conditions: hepatocytes, dose 0.1-5 µM
# Mus musculus [2] = assay: Anti-NAFLD activity in high-fat diet-induced male C57BL/6J mouse model assessed as reduction in IL-6 level in liver at 125 mg/kg, po compound administrated as copper complex measured for 10 weeks; assay type: functional, organism-based
# Mus musculus [3] = assay: Anti-NAFLD activity in high-fat diet-induced male C57BL/6J mouse model assessed as increase in lipid droplets accumulation in liver at 125 mg/kg, po compound administrated as copper complex measured for 10 weeks by oil red O staining based analysis; assay type: functional, organism-based
# Mus musculus [4] = assay: Anti-NAFLD activity in high-fat diet-induced male C57BL/6J mouse model assessed as increase in copper level in serum at 125 mg/kg, po compound administrated as copper complex measured for 10 weeks by ICP-MS analysis; assay type: functional, organism-based
# HepG2 [5] = assay: Anti-NAFLD activity in palmitic acid human HepG2 NAFLD cell model assessed as downregulation of STAT2 expression at 0.5 uM incubated for 24 hrs in presence of CuCl2 by mRNA sequencing analysis; assay type: functional, cell-based
# Mus musculus [6] = assay: Anti-NAFLD activity in high-fat diet-induced male C57BL/6J mouse model assessed as decrease in 3-phosphoglycerate at 125 mg/kg, po compound administrated as copper complex measured for 10 weeks by LC-MS/MS analysis; assay type: functional, organism-based
# [7] = Toxicity in male C57BL/6 mouse assessed as change in body weight at 125 mg/kg, po compound administrated as copper complex measured for 10 weeks; assay type: organism-based; conditions: in vivo, 1680 h
# HepG2 [8] = assay: Anti-NAFLD activity in palmitic acid human HepG2 NAFLD cell model assessed as downregulation of STAT3 expression at 0.5 uM incubated for 24 hrs in presence of CuCl2 by mRNA sequencing analysis; assay type: functional, cell-based
# [9] = Photophysical property of the compound assessed as fluorescence quantum yield; assay type: physicochemical
# HepG2 [10] = assay: Anti-NAFLD activity in palmitic acid human HepG2 NAFLD cell model assessed as upregulation of CYP4F12 expression at 0.5 uM incubated for 24 hrs in presence of CuCl2 by mRNA sequencing analysis; assay type: functional, cell-based
# Mus musculus [11] = assay: Anti-NAFLD activity in high-fat diet-induced male C57BL/6J mouse model assessed as increase in S7P level in liver at 125 mg/kg, po compound administrated as copper complex measured for 10 weeks by LC-MS/MS analysis; assay type: functional, organism-based
# Mus musculus [12] = assay: Anti-NAFLD activity in high-fat diet-induced male C57BL/6J mouse model assessed as increase in F6P level in liver at 125 mg/kg, po compound administrated as copper complex measured for 10 weeks by LC-MS/MS analysis; assay type: functional, organism-based
# [13] = Induction of copper transporting activity in human HeLa cells assessed as fold increase in intracellular copper levels at 2 uM incubated for 4 hrs by ICP-MS analysis; assay type: functional
# HepG2 [14] = assay: Anti-NAFLD activity in palmitic acid human HepG2 NAFLD cell model assessed as upregulation of CYP4F3 expression at 0.5 uM incubated for 24 hrs in presence of CuCl2 by mRNA sequencing analysis; assay type: functional, cell-based
# HepG2 [15] = assay: Anti-NAFLD activity in palmitic acid human HepG2 NAFLD cell model assessed as effect on IL6 expression at 0.5 uM incubated for 24 hrs in presence of CuCl2 by mRNA sequencing analysis; assay type: functional, cell-based
# [16] = Stability of compound in PBS buffer in presence of histidine by UV-Vis spectrophotometer analysis; assay type: physicochemical
# Mus musculus [17] = assay: Anti-NAFLD activity in high-fat diet-induced male C57BL/6J mouse model assessed as increase in glucose level serum at 125 mg/kg, po compound administrated as copper complex measured for 10 weeks; assay type: functional, organism-based
# Mus musculus [18] = assay: Anti-NAFLD activity in high-fat diet-induced male C57BL/6J mouse model assessed as increase in R5P level in liver at 125 mg/kg, po compound administrated as copper complex measured for 10 weeks by LC-MS/MS analysis; assay type: functional, organism-based
# HeLa = assay: Induction of copper transporting activity in human HeLa cells assessed as increase in intracellular copper levels by measuring change in fluorescence intensity; assay type: functional, cell-based
# HepG2 [19] = assay: Anti-NAFLD activity in palmitic acid human HepG2 NAFLD cell model assessed as downregulation of STAT1 expression at 0.5 uM incubated for 24 hrs in presence of CuCl2 by mRNA sequencing analysis; assay type: functional, cell-based
# HepG2 [20] = assay: Anti-NAFLD activity in palmitic acid human HepG2 NAFLD cell model assessed as effect on HMOX1 expression at 0.5 uM incubated for 24 hrs in presence of CuCl2 by mRNA sequencing analysis; assay type: functional, cell-based
# [21] = Stability of the compound in cell culture medium containing 10% fetal bovine serum in presence of histidine by UV-Vis spectrophotometer analysis; assay type: physicochemical, cell-free; conditions: cattle
# HepG2 [22] = assay: Anti-NAFLD activity in palmitic acid human HepG2 NAFLD cell model assessed as upregulation of SOD1 expression at 0.5 uM incubated for 24 hrs in presence of CuCl2 by mRNA sequencing analysis; assay type: functional, cell-based
# [23] = Stability of the compound in cell culture medium containing 10% fetal bovine serum in presence of cysteine by UV-Vis spectrophotometer analysis; assay type: physicochemical, cell-free; conditions: cattle
# Hepatocyte [24] = assay: Cytotoxicity against mouse Hepatocyte assessed as cell viability at 0.1 to 5 uM measured at 24 hrs by MTT assay; assay type: toxicity, cell-based; conditions: hepatocytes, dose 0.1-5 µM
# HepG2 [25] = assay: Cytotoxicity against human HepG2 cells assessed as cell viability at 0.1 to 5 uM compound administrated as copper complex measured at 24 hrs by MTT assay; assay type: functional, cell-based; conditions: dose 0.1-5 µM
# [26] = Stability of compound in PBS buffer in presence of EDTA by UV-Vis spectrophotometer analysis; assay type: physicochemical
# HepG2 [27] = assay: Cytotoxicity against human HepG2 cells assessed as cell viability at 0.1 to 5 uM measured at 24 hrs by MTT assay; assay type: functional, cell-based; conditions: dose 0.1-5 µM
# Mus musculus [28] = assay: Anti-NAFLD activity in high-fat diet-induced male C57BL/6J mouse model assessed as increase in Ru5P level in liver at 125 mg/kg, po compound administrated as copper complex measured for 10 weeks by LC-MS/MS analysis; assay type: functional, organism-based
# HepG2 [29] = assay: Anti-NAFLD activity in palmitic acid human HepG2 NAFLD cell model assessed as decrease in lipid droplet level at 5 uM measured at 24 hrs by Oil Red O staining based assay relative to control; assay type: functional; parameters: scale not given: the % may be the effect or the level left
# Mus musculus [30] = assay: Anti-NAFLD activity in high-fat diet-induced male C57BL/6J mouse model assessed as increase in malic acid level at 125 mg/kg, po compound administrated as copper complex measured for 10 weeks by LC-MS/MS analysis; assay type: functional, organism-based
# HepG2 [31] = assay: Anti-NAFLD activity in palmitic acid human HepG2 NAFLD cell model assessed as downregulation of IL6 expression at 0.5 uM incubated for 24 hrs in presence of CuCl2 by mRNA sequencing analysis; assay type: functional, cell-based
# Mus musculus [32] = assay: Anti-NAFLD activity in high-fat diet-induced male C57BL/6J mouse model assessed as increase in lipid droplets accumulation in liver at 125 mg/kg, po compound administrated as copper complex measured for 10 weeks by H and E staining based analysis; assay type: functional, organism-based
structure (smiles),measurement,setting,value
O=c1c(O)c(-c2ccc3cccc(O)c3n2)oc2ccccc12,Activity,Hepatocyte [1],Non-toxic
same,Activity,Mus musculus [2],Active
same,Activity,Mus musculus [3],Active
same,Activity,Mus musculus [4],Active
same,Activity,HepG2 [5],Active
same,Activity,Mus musculus [6],Active
same,Activity,[7],Non-toxic
same,Activity,HepG2 [8],Active
same,Activity,[9],0.199
same,Activity,HepG2 [10],Active
same,Activity,Mus musculus [11],Active
same,Activity,Mus musculus [12],Active
same,fold change (FC),[13],~5
same,Activity,HepG2 [14],Active
same,Activity,HepG2 [15],Active
same,Stability,[16],Stable
same,Activity,Mus musculus [17],Active
same,Activity,Mus musculus [18],Active
same,Activity,HeLa,Active
same,Activity,HepG2 [19],Active
same,Activity,HepG2 [20],Active
same,Stability,[21],Stable
same,Activity,HepG2 [22],Active
same,Stability,[23],Stable
same,Activity,Hepatocyte [24],Non-toxic
same,Activity,HepG2 [25],Active
same,Stability,[26],Stable
same,Activity,HepG2 [27],Active
same,Activity,Mus musculus [28],Active
same,Activity,HepG2 [29],61%
same,Activity,Mus musculus [30],Active
same,Activity,HepG2 [31],Active
same,Activity,Mus musculus [32],Active

# — ChEMBL document CHEMBL6115034, “Pseudonatural Flavonols as Novel Copper Ionophores for NAFLD Intervention via Synergistic Copper Delivery and Flavonoid Activity” (J Med Chem, 2025)
